The subject of this test is skin brightness/luminance, Asian subjects. Briefly: Self-assessment of skin brightness/luminance, Asian subjects. The class given is in vivo, human. To be noted: Week 8. On the procedure: Included subjects were: • 1. Female subjects between the ages of 35-66 (inclusive) in general good health • 2. Asian subjects who had skin brightness/luminance score of “5” (moderately dull/sallow appearance) or greater on the face (for qualification only) as assessed by a trained technician and whose brightness/luminance were evaluated according to the following scale: 0—No dullness/sallowness visible, 1-3—Slightly dull/sallow appearance, 4-6—Moderately dull/sallow appearance, 7-9—Severely dull/sallow appearance. • 3. […] Individuals who could read, understand, and sign the Informed Consent form. • 5. […] At all visits, a trained technician evaluated the face of each subject for irritation. […] Results: Skin brightness/luminance (Asian subjects): In order to determine any changes in skin brightness/luminance, skin brightness (luminosity) was analyzed by Visia CR®. Facial luminance was a single number calculated based on the uniformity of the lightening of the image. […] There were no significant changes to brightness/luminance as assessed by the Visia CR® analysis at any of the clinic visits, although the Mean Score for skin brightness/luminance trended toward an increase at 4 and 8 weeks after starting dimethoxytolyl propylresorcinol use compared to Baseline (Table 24), indicating an improvement in skin brightness/luminance.

We go through one compound from patent publication US20230320956A1, “DIARYLALKANE COMPOUNDS AND COMPOSITIONS FOR USE WITH SKIN AGING AND METHODS OF PRODUCTION THEREOF” (Unigen, Inc., priority 2022, published 2023).

As to `COc1ccc(CCCc2ccc(O)cc2O)c(OC)c1C` [dimethoxytolyl propylresorcinol, 1-(3-methyl-2,4-dimethoxyphenyl)-3-(2′,4′-dihydroxyphenyl)-propane], the “Self-Assessment Skin Brightness/Luminance % Improvement from Baseline” value stood at 13%.
